Assay results reported in patent publication US20040110265A1, “Recovery of enzyme activity from enveloped viruses” (priority 2001, published 2004).

Columns and labels:
Assay type in all cases: biochemical
human plasma RT = test: Selective destruction of endogenous RT activity in plasma, protocol I; conditions: EDTA plasma with disrupted lymphocytes, 1 hour at room temperature
Procedure: EDTA plasma with disrupted lymphocytes from a healthy blood donor and FIV diluted in inactivated foetal calf serum (totally devoid of plasma RT activity) were incubated for 1 hour at room temperature with indicated concentration of: A) 5,5′-dithiobis-(2-nitrobensoic acid), B) thimerosal. The samples were separated according to “Protocol for determination of retroviral RT from material which contains RT blocking antibodies”. The RT activities recovered were determined with an RT assay (Cavidi HS-kit Lenti RT).

human plasma polymerase [1] = test: Elimination of plasma polymerase without purification (substance, then cysteamine); conditions: one hour at room temperature, then 20 mM cysteamine; no purification
Procedure: A) EDTA plasma from a healthy blood donor, B) FIV virus diluted in inactivated FCS (devoid of RT activity) or C) in Dulbeco minimal essential medium with 5% FCS were diluted 1:1 and incubated with indicated concentration of 5,5′-dithiobis-(2-nitrobensoic acid) for one hour at room temperature (20° C.). Each sample was then serially diluted in fourfold steps in conditioning buffer (B). Cysteamine to a final concentration of 20 mM was then added to all samples and the set was incubated for another hour at room temperature. The RT activity of each sample was then determined using Cavidi® HS kit Lenti RT. 15 μl of each sample was added to 135 μl reaction mixture giving a final cysteamine concentration in assay of 2 mM. The RT activity recovered at the three first dilutions corresponding to 7.5, 1.9 and 0.5 μl sample per RT assay was recalculated into percentage of a control incubated in absence of substance and plotted against the substance concentration, see FIG. 6.

human plasma polymerase [2] = test: Resurrection of plasma polymerase activity after treatment with cysteine-modifying agents; conditions: for Conditions required to reactivate polymerase activity treated with the agent: 3 mM agent, then reactivating substances; for Polymerase activity after second incubation with DTT (% of control) / Polymerase activity after second incubation with MSA (% of control) / Polymerase activity after second incubation with cysteine (% of control) / Polymerase activity after second incubation with glutathione (% of control): 3 mM destroying agent first; for Polymerase activity after second incubation with indicated substance (% of control): no destroying agent in first incubation
Procedure: A set of human plasma samples (60% plasma in water) was first incubated with 3 mM of indicated cysteine-modifying substance or water (as control) at room temperature for 1 hour. Serial dilutions of five potentially reactivating substances were then added and the samples were incubated for another hour. Each sample was finally diluted 1:20 and residual RT activity was determined with Cavidi® HS kit Lenti RT. The total reduction in substance concentration between sample incubation and RT assay was 200 times. The RT activities recovered were recalculated into percent of the activity of a control consisting of plasma incubated in absence of additions during both incubation steps.

[3] = system: unidentified RT activity from human plasma; test: RT assay (Cavidi HS-kit Lenti RT) with added components, human plasma polymerase; conditions: 12 ng odT, 100% = no addition
Procedure: (§1) The effect of addition of indicated components to RT reaction mixture devoid of primer (Cavidi HS-kit Lenti RT) was investigated. EDTA plasma from two healthy blood donors (1 μl/assay), recombinant HIV 1 RT or FIV RT of cell culture origin was used as enzyme.

recombinant HIV 1 RT = target: T1, recombinant HIV 1 RT (Human immunodeficiency virus type 1 group M subtype B, UniProt P04585); test: RT assay (Cavidi HS-kit Lenti RT) with added components, recombinant HIV 1 RT; conditions: 12 ng odT, 100% = no addition
T1 construct: recombinant HIV 1 RT or FIV RT of cell culture origin was used as enzyme
Procedure: as §1

[4] = system: FIV RT of cell culture origin; test: RT assay (Cavidi HS-kit Lenti RT) with added components, FIV RT; conditions: 12 ng odT, 100% = no addition
Procedure: as §1

[5] = 2.5 10^-6 M final concentration in RT assay
[6] = 0.1 M final concentration in RT assay
[7] = 1 mM final concentration in RT assay

SMILES	Activity of indicated enzyme in RT assay, plasma 1 [3, 5] [%]	Activity of indicated enzyme in RT assay, plasma 2 [3, 5] [%]	Activity of indicated enzyme in RT assay, HIV (recombinant HIV 1 RT; [5]) [%]	Activity of indicated enzyme in RT assay, FIV [4, 5] [%]	Polymerase activity after second incubation with indicated substance (% of control) (human plasma polymerase [2]; 1.1 mM substance) [%]	Polymerase activity after second incubation with indicated substance (% of control) (human plasma polymerase [2]; 3.3 mM substance) [%]	Polymerase activity after second incubation with indicated substance (% of control) (human plasma polymerase [2]; 10 mM substance) [%]	Polymerase activity after second incubation with indicated substance (% of control) (human plasma polymerase [2]; 30 mM substance) [%]	further results
O=C(O)c1cc(SSc2ccc([N+](=O)[O-])c(C(=O)O)c2)ccc1[N+](=O)[O-] [5,5′-Dithiobis-(2-nitrobenzoic acid)]									Concentration that totally eliminated the human plasma RT activity (human plasma RT): above 0.4 mM; Concentration after which human plasma polymerase activity was eliminated (human plasma polymerase [1]): above 0.47 mM; Conditions required to reactivate polymerase activity treated with the agent (human plasma polymerase [2]): required strongly reductive low molecular weight thiols for activation; Polymerase activity after second incubation with DTT (% of control) (human plasma polymerase [2]; 1.1 mM DTT): 0%; Polymerase activity after second incubation with MSA (% of control) (human plasma polymerase [2]; 1.1 mM MSA): 0%; Polymerase activity after second incubation with DTT (% of control) (human plasma polymerase [2]; 3.3 mM DTT): 1%; Polymerase activity after second incubation with MSA (% of control) (human plasma polymerase [2]; 3.3 mM MSA): 0%; Polymerase activity after second incubation with DTT (% of control) (human plasma polymerase [2]; 10 mM DTT): 143%; Polymerase activity after second incubation with MSA (% of control) (human plasma polymerase [2]; 10 mM MSA): 0%; Polymerase activity after second incubation with DTT (% of control) (human plasma polymerase [2]; 30 mM DTT): 122%; Polymerase activity after second incubation with MSA (% of control) (human plasma polymerase [2]; 30 mM MSA): 0%; Polymerase activity after second incubation with cysteine (% of control) (human plasma polymerase [2]; 30 mM cysteine): 7%; Polymerase activity after second incubation with glutathione (% of control) (human plasma polymerase [2]; 30 mM glutathione): 2%
Cc1cn([C@H]2CC[C@@H](COP(=O)(O)OP(=O)(O)OP(=O)(O)O)O2)c(=O)[nH]c1=O [ddTTP]	7	9	18	28					
NCCS [cysteamine]					15	9	6	6	
Nc1nc2c(ncn2[C@H]2CC[C@@H](COP(=O)(O)OP(=O)(O)OP(=O)(O)O)O2)c(=O)[nH]1 [ddGTP]	103	109	94	93					
N[C@@H](CCC(=O)N[C@@H](CS)C(=O)NCC(=O)O)C(=O)O [glutathione]					72	78	80	13	
[Cl-].[K+] [KCl]									Activity of indicated enzyme in RT assay, plasma 1 [3, 6]: 17%; Activity of indicated enzyme in RT assay, plasma 2 [3, 6]: 20%; Activity of indicated enzyme in RT assay, HIV (recombinant HIV 1 RT; [6]): 87%; Activity of indicated enzyme in RT assay, FIV [4, 6]: 110%
N[C@@H](CS)C(=O)O [cysteine]					72	82	145	198	
Nc1ncnc2c1ncn2[C@H]1CC[C@@H](COP(=O)(O)OP(=O)(O)OP(=O)(O)O)O1 [ddATP]	94	105	90	79					
Cc1ccc(S(=O)(=O)[N-]Cl)cc1.[Na+] [Chloramine T]									Conditions required to reactivate polymerase activity treated with the agent (human plasma polymerase [2]): required strongly reductive low molecular weight thiols for activation; Polymerase activity after second incubation with DTT (% of control) (human plasma polymerase [2]; 1.1 mM DTT): 2%; Polymerase activity after second incubation with MSA (% of control) (human plasma polymerase [2]; 1.1 mM MSA): 6%; Polymerase activity after second incubation with DTT (% of control) (human plasma polymerase [2]; 3.3 mM DTT): 51%; Polymerase activity after second incubation with MSA (% of control) (human plasma polymerase [2]; 3.3 mM MSA): 0%; Polymerase activity after second incubation with DTT (% of control) (human plasma polymerase [2]; 10 mM DTT): 80%; Polymerase activity after second incubation with MSA (% of control) (human plasma polymerase [2]; 10 mM MSA): 1%; Polymerase activity after second incubation with cysteine (% of control) (human plasma polymerase [2]; 10 mM cysteine): 4%; Polymerase activity after second incubation with glutathione (% of control) (human plasma polymerase [2]; 10 mM glutathione): 3%; Polymerase activity after second incubation with DTT (% of control) (human plasma polymerase [2]; 30 mM DTT): 94%; Polymerase activity after second incubation with MSA (% of control) (human plasma polymerase [2]; 30 mM MSA): 0%; Polymerase activity after second incubation with cysteine (% of control) (human plasma polymerase [2]; 30 mM cysteine): 9%
O[C@H](CS)[C@H](O)CS (racemic) [DTT, Dithiothreitol]					260	613	767	860	
O=C([O-])P(=O)(O)O.O=C([O-])P(=O)(O)O.O=C([O-])P(=O)(O)O.[Na+].[Na+].[Na+] [PFA, trisodium phosophonoformate]									Activity of indicated enzyme in RT assay, plasma 1 [3, 7]: 92%; Activity of indicated enzyme in RT assay, plasma 2 [3, 7]: 94%; Activity of indicated enzyme in RT assay, HIV (recombinant HIV 1 RT; [7]): 1%
O=C(O)CC(S)C(=O)O (centres unmarked) [MSA, Mercaptosuccinic acid]					109	110	64	7	
Nc1ccn([C@H]2CC[C@@H](COP(=O)(O)OP(=O)(O)OP(=O)(O)O)O2)c(=O)n1 [ddCTP]	94	103	89	75					
